Assay results taken from ChEMBL document CHEMBL1201862, “PubChem BioAssay data set” (2004).
The source made the active and inactive calls.

Key:
[1] = test system: Streptococcus sp. 'group A'; assay: growth inhibition of control SK(-) GAS strain, dose response, counter-screen for streptokinase expression inhibitor project, luminescence, kanamycin, BacTiterGlo, confirmation (AID 1900); assay type: functional, organism-based
[2] = target: Heat shock protein HSP 90-alpha (Homo sapiens, UniProt P07900); assay: Luminescence-based dose response biochemical high throughput screening assay for inhibitors of the Heat Shock Protein 90 (HSP90). [Related pubchem assays: 1831 (Summary AID.), 1846 (Confirmation screen.), 1789 (Primary screen.)]
[3] = THP-1 cell cytotoxicity, dose response, cytotoxicity control for non-replicating M. tuberculosis project (AID 489025); assay type: functional
[4] = HepG2 cell cytotoxicity, dose response, cytotoxicity control for non-replicating M. tuberculosis project (AID 489018); assay type: functional; conditions: Mycobacterium tuberculosis
Hexokinase HKDC1 = target: T1, Hexokinase HKDC1 (Homo sapiens, UniProt Q2TB90); assay: HKDC1 hexokinase inhibitors, dose response, biochemical, W721R variant (AID 504729); assay type: functional
T1 sequence (Q2TB90 whole entry): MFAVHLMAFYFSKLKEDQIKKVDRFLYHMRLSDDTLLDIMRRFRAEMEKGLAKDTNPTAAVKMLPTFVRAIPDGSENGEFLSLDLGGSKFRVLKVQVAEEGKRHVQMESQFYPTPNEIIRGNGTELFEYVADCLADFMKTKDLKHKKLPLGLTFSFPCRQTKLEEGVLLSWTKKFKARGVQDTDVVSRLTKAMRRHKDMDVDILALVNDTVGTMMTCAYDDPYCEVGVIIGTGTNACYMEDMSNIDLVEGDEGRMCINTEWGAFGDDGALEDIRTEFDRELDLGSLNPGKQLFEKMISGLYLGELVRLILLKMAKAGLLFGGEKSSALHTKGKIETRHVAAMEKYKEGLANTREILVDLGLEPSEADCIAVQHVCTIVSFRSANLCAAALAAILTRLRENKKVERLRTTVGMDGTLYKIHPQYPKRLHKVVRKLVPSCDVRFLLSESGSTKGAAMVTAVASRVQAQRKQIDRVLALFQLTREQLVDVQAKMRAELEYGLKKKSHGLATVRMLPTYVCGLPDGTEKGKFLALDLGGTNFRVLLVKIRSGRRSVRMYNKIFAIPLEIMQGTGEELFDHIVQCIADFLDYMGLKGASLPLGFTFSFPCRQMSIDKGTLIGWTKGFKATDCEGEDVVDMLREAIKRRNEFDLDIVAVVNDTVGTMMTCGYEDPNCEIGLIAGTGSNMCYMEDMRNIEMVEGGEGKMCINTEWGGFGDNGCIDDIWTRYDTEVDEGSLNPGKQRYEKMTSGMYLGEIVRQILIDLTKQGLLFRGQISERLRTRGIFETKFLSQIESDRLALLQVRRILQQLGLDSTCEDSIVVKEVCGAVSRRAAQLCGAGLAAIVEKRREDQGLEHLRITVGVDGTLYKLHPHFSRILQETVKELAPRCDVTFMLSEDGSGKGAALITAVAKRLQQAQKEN

INS1 = assay: beta cell apoptosis inhibitors, cytokine rescue, dose response, luminescence, retest (AID 449756); assay type: functional, cell-based; conditions: Rattus norvegicus;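 also: cell death triggered by IL-1 beta plus TNF-alpha plus IFN-gamma mixture; protective hits raise ATP signal compared with cytokine alone wells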

O=C1C(Nc2ccccc2)=C/C(=N/S(=O)(=O)c2cccs2)c2ccccc21
active: EC50 [1] 2810 nM | IC50 [2] 348 nM | CC50 [3] 1800 nM | CC50 [4] 13900 nM | IC50 (Hexokinase HKDC1) 4880 nM | AC50 (INS1) 907 nM
